We go through three compounds from patent publication US20170129919A1, “CYCLIC DIPEPTIDE-CONTAINING COMPOSITION” (Suntory Holdings Limited, priority 2014, published 2017).

Converted amounts (≈) assume the structure as drawn.

Data set [1] concerns the target xanthine oxidase (XO). As to the kind of experiment: In vitro xanthine oxidase (XO) inhibiting action. The following applies: Table 1; PBS pH 7.5, xanthine substrate, absorbance at 295 nm after 30 minutes; mean±standard error; read-out: IC50 (Activity of Inhibiting XO of Tyr-Containing Cyclic Dipeptides). The data set is classed as biochemical. Here is the method: The in vitro xanthine oxidase (XO) inhibiting action was studied on 210 kinds of cyclic dipeptides, linear dipeptides Tyr-Gly and Gly-Tyr, and an amino acid Tyr. […] Thereafter, 20 μL of a 250 μM xanthine solution previously dissolved in the PBS was added thereto, and the absorbance after 30 minutes was measured using a spectrophotometer (Synegy HT, manufactured by Bio Tek). The XO inhibition rate (%) at each concentration was calculated by the following calculation formula, to obtain activities of inhibiting XO (IC50 values).

Data set [2] is described as follows: Stability of standard product in aqueous solution (LC-MS/MS content measurement). The data set is classed as physicochemical.
The test system of a further data set is hyperuricemic mice. As to the kind of experiment: Action of lowering serum uric acid levels for hyperuricemic mice (potassium oxonate model). The following applies: FIG. 2. The format is in vivo, BALBc mice. Here is the method:
As to the animals used, male 7-week old BALBc mice were purchased from CLEA Japan, Inc., and subjected to an experiment after a one-week period of conditioning. The animals were bred in a breeding room with air-conditioning facilities (temperature: 23.5°±1.0° C., humidity: 55±10 RH %, the number of ventilation: 12 to 15 times/hour, illuminated: from 7:00 to 19:00 each day). During the period of conditioning, the mice were allowed to take a commercially available feed (CE-2, manufactured by CLEA Japan, Inc.) and distilled water ad libitum.
Oxonic acid is a substance that raises a blood uric acid level by inhibiting a urikase, a metabolic enzyme for uric acid. In view of the above, potassium oxonate (PO) was administered, thereby generating hyperuricemic model animals (see, Planta Med 2009; 75:302-306). Studies were made on the following 6 groups:
In all the groups that include PO administration, PO previously suspended in a 0.5% aqueous CMC-Na solution at 250 mg/kg was administered, and Normal Group was administered with a 0.5% aqueous CMC-Na solution, each being administered intraperitoneally. […] After 2 hours from the administration with PO, the blood was collected from the abdominal vena cava under anesthesia. After blood removal, the liver was harvested. The collected blood was allowed to stand at room temperature for 45 minutes, and centrifuged at 8,000 rpm for 10 minutes to recover sera. Here, the sera and the liver were preserved at −80° C. until the measurements were carried out.
The serum uric acid level was measured using 7180 Clinical Analyzer (manufactured by Hitachi Technologies).
The actions of lowering serum uric acid levels of soybean peptide heat-treated products were studied using hyperuricemic model animals, in the same manner as in Test Example 2. Concretely, the animals used were furnished in the same manner as in Test Example 2, and studies were made on the following 5 groups.
For each of the above-mentioned groups, the administration and the blood collection were carried out in the same manner as in Test Example 2 to measure a serum uric acid level. […]
Here, the heat-treated product of the soybean peptide obtained by dissolving a soybean peptide (Hinute AM, manufactured by FUJI OIL, CO., LTD.) in distilled water in a concentration of 200 mg/mL, heating to 132° C. for 3 hours, and lyophilizing the heated mixture was used. The content of the cyclic dipeptide of the soybean peptide heat-treated product was measured according to LC-MS/MS under the following conditions. […]

Data set [3] addresses T1, xanthine oxidase (XO) (Mus musculus, UniProt Q00519).
T1 construct: the collected supernatant was subjected to an assay for a xanthine oxidase (XO) activity; from tissue; host or cells: liver homogenate supernatant and serum of male BALBc mice (potassium oxonate hyperuricemia model)
As to the kind of experiment: XO activity in the liver and sera of hyperuricemic mice. The data set is classed as in vivo, BALBc mice. The following applies: 100 mg/kg orally.
Protocol: As to the animals used, male 7-week old BALBc mice were purchased from CLEA Japan, Inc., and subjected to an experiment after a one-week period of conditioning. […] During the period of conditioning, the mice were allowed to take a commercially available feed (CE-2, manufactured by CLEA Japan, Inc.) and distilled water ad libitum.
Next, the livers of mice were added to a mixture of an ice-cooled protease inhibitor cocktail and an EDTA-containing tissue protein extraction reagent (T-PER), homogenized, and then centrifuged at 15,000 rpm, at 4° C. for 15 minutes, and the collected supernatant was subjected to an assay for a xanthine oxidase (XO) activity. […]

Another data set can be described thus: Solubility in water. The data set is classed as physicochemical. The following applies: Table 5. Here is the method: Concretely, each compound was added to distilled water (manufactured by Otsuka Pharmaceutical Co., Ltd.) at an ambient temperature (25° C.) so as to have a final concentration of 5 mM, and the mixture was stirred under ultrasonication for 30 minutes to dissolve. […] However, none of the compounds dissolved, so that distilled water was further added thereto so as to have a final concentration of 0.01 mM, and the mixture was stirred under ultrasonication for 30 minutes, but still no compounds dissolved.

T1 sequence (Q00519 whole entry): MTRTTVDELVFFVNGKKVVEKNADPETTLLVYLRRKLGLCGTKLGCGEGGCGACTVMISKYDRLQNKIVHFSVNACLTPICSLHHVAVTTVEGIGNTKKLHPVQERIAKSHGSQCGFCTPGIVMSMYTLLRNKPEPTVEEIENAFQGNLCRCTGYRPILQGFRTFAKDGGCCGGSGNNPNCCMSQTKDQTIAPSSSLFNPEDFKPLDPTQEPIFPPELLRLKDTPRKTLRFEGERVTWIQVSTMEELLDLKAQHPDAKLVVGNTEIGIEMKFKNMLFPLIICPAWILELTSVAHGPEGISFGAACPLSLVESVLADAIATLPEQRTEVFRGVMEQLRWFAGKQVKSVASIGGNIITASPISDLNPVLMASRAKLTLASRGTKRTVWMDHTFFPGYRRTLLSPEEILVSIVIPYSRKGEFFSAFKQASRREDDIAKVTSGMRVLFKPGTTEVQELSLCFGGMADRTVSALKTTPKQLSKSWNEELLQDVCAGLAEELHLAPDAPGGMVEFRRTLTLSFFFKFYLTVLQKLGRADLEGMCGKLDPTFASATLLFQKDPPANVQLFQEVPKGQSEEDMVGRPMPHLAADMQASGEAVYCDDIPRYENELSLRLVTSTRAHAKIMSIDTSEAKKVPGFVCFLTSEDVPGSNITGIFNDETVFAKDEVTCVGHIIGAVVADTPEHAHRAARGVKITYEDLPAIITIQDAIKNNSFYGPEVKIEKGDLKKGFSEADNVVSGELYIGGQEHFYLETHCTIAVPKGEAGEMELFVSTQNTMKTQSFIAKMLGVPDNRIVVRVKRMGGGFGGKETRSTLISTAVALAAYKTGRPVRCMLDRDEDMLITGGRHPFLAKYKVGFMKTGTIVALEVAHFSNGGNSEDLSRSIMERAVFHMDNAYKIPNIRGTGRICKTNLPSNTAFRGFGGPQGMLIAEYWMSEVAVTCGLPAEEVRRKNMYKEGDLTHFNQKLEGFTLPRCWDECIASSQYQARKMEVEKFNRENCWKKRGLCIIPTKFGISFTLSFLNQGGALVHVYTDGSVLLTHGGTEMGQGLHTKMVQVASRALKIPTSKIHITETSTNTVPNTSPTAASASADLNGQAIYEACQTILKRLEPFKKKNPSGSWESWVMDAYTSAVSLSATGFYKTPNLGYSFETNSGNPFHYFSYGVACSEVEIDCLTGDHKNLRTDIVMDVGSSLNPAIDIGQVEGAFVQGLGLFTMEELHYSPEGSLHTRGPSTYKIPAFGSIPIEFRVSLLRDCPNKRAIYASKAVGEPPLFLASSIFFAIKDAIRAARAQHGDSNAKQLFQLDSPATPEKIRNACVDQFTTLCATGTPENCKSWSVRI

The IC50 is the concentration that inhibits the measured activity by half. Turning to `O=C1NC(Cc2ccc(O)cc2)C(=O)NC1CS` (centres unmarked) [Cyclo(Tyr-Cys)], the IC50 at xanthine oxidase (XO) [1] came to 77.2 ± 4.7 µM. Further, the “stability of the standard product in an aqueous solution” value in data set [2] is on record as “unstable in an aqueous solution”.

As for `Oc1ncnc2[nH]ncc12` [Allopurinol, reference compound], the “serum uric acid level vs PO Group” value in the data set with hyperuricemic mice (1 mg/kg orally) was “significant difference in effects on the PO Group”.

One may read the solubility as the dissolved amount per volume that the medium holds. Read a low solubility as little dissolved substance. For the compound `O=C1CNC(=O)C(Cc2ccc(O)cc2)N1` (centres unmarked) [Cyclo(Tyr-Gly), cyclotyrosylglycine], the “xanthine oxidase activity in the sera” value on xanthine oxidase (XO) [3] (FIG. 3 lower panel) is reported as “inhibited”. The “xanthine oxidase activity in the liver” value on xanthine oxidase (XO) [3] (FIG. 3 upper panel) was “inhibited”. For the same compound, the “serum uric acid level vs PO Group” value in the data set with hyperuricemic mice (30 mg/kg orally) and in the data set on hyperuricemic mice (100 mg/kg orally) was “significant difference in effects on the PO Group” throughout. The “action of lowering serum uric acid level, dose dependence” value with hyperuricemic mice (10, 30, 100 mg/kg orally, 1 h after PO 250 mg/kg i.p., blood 2 hours after PO) is on record as “action of lowering a uric acid level in a dose-dependent manner”. In addition, the IC50 at xanthine oxidase (XO) [1] turned out to be 49 ± 3 µM. Further, the “solubility in water (in words)” value in “Solubility in water” is given as “high solubility in water”. In “Solubility in water” (distilled water, 25° C., ultrasonication 30 minutes, visual examination, tested at 5, 1, 0.1, 0.01 mM, insoluble = not dissolved at 0.01 mM), this compound showed a solubility at 30 min of 1000 µM (≈ 220 µg/mL).
